Experimental data published in patent publication US9845292B2 (Max-Planck-Gesellschaft zur Förderung der Wissenschaften …, priority 2013, dated 2017).
Like-named read-outs stand apart in the source and are kept apart here.

Key:
[1] = target: T1, FKBP52 (Homo sapiens, UniProt Q02790); test: Fluorescence polarization binding assay, FK1-domain of FKBP52WT with tracer F2 (selectivity FKBP51 vs. FKBP52); conditions: selectivity factor over FKBP52
T1 construct: Purified FK1-domains of FKBP51WT (4.5 nM) with F4 (3 nM), FKBP52WT (400 nM) with F2 (20 nM); implied by Ni-NTA purification) (N); made in house; host or cells: E. coli BL21(DE3)pLysS
T1 sequence (Q02790 50-138 limits assumed): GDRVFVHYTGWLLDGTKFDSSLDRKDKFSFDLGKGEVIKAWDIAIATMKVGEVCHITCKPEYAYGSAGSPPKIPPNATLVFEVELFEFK
Procedure: (§1) The target protein was also diluted in this assay buffer at double the highest concentration required for the final sample. This protein stock was used for a 1:1 serial dilution.
(§2) The inventive compound was dissolved in DMSO to reach a 100-times concentrated stock solution. This was used for a 1:1 serial dilution in DMSO.
(§3) For FKBP12, −51, and −52 the binding assays were performed in duplicates in the plate format.
(§4) The competition curves were analyzed by using SigmaPlot9. Data were fitted to a four parameter logistic curve to deduce the IC50 values. […] A=(Amax−Amin)/[L]t×(([L]t×((2×((Klig+Kcomp+[L]t+[I]t−[R]t)^2−3×(Kcomp×([L]t−[R]t)+Klig×([I]t−[R]t)+Klig×Kcomp))^0.5×COS(ARCCOS((−2×(Klig+Kcomp+[L]t+[I]t−[R]t)^3+9×(Klig+Kcomp+[L]t+[I]t−[R]t)×(Kcomp×([L]t−[R]t)+Klig×([I]t−[R]t)+Klig×Kcomp)−27×(−1×Klig×Kcomp×[R]t))/(2×((((Klig+Kcomp+[L]t+[I]t−[R]t)^2−3×(Kcomp×([L]t−[R]t)+Klig×([I]t−[R]t)+Klig×Kcomp))^3)^0.5)))/3))−(Klig+Kcomp+[L]t+[I]t−[R]t)))/((3×Klig)+((2×((Klig+Kcomp+[L]t+[I]t−[R]t)^2−3×(Kcomp×([L]t−[R]t)+Klig×([I]t−[R]t)+Klig×Kcomp))^0.5×COS(ARCCOS((−2×(Klig+Kcomp+[L]t+[I]t−[R]t)^3+9×(Klig+Kcomp+[L]t+[I]t−[R]t)×(Kcomp×([L]t−[R]t)+Klig×([I]t−[R]t)+Klig×Kcomp)−27×(−1×Klig×Kcomp×[R]t))/(2×((((Klig+Kcomp+[L]t+[I]t−[R]t)^2−3×(Kcomp×([L]t−[R]t)+Klig×([I]t−[R]t)+Klig×Kcomp))^3)^0.5)))/3))−(Klig+Kcomp+[L]t+[I]t−[R]t))))+Amin
(§5) In this equation Klig and Kcomp stand for the Kd values of the used tracer or competing inhibitor, [I]t is referring to the total concentration of the titrated inhibitor.
The Selectivity of the Compounds was Classified by Ki(FKBP51)/Ki(FKBP52)
(§6) Inhibition constants were measured in a fluorescence polarization binding assay by titrating the compounds.

[2] = target: T2, FKBP51 (Homo sapiens, UniProt Q13451); test: Fluorescence polarization binding assay, FK1-domain of FKBP51WT with tracer F4; parameters: Purified FK1-domains of FKBP51WT (4.5 nM) with F4 (3 nM), FKBP52WT (400 nM) with F2 (20 nM); made in house; host or cells: E. coli BL21(DE3)pLysS; conditions: read-out: Affinity(Ki) for FKBP51
T2 sequence (Q13451 42-130 limits assumed): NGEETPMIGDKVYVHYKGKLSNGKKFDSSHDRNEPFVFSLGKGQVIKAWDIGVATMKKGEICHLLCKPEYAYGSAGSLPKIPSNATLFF
Procedure: as §1, §2, §3, §4, §5, §6

[3] = FKBP52WT (400 nM) with F2 (20 nM), A series
[4] = FK1-domain of FKBP51WT (4.5 nM) with F4 (3 nM), A series

| Ki(FKBP51)/Ki(FKBP52) ([1]; compounds B01-C25) | Ki ([2]; compounds B01-C25) [µM] | Ki(FKBP51)/Ki(FKBP52) [1, 3] | Ki [2, 4] [µM] | SMILES |
| --- | --- | --- | --- | --- |
| ++ (>50 ++) | 10 to 50 | – | – | COc1cc([C@@H](C(=O)N2CCCC[C@H]2C(=O)OC2CCCCCC2)C2CCCCC2)cc(OC)c1OC [Compound C16, (S)-cycloheptyl-1-((S)-2-cyclohexyl-2-(3,4,5-trimethoxyphenyl)acetyl)piperidine-2-carboxylate] |
| +++ (>500 +++) | 1 to 10 | – | – | COc1cc([C@@H](C(=O)N2CCCC[C@H]2C(=O)OC(C)(C)C)C2CCCCC2)cc(OC)c1OC [Compound C10, (S)-tert-butyl-1-((S)-2-cyclohexyl-2-(3,4,5-trimethoxyphenyl)acetyl)piperidine-2-carboxylate] |
| + (>5 +) | 10 to 50 | – | – | COc1cc([C@@H](C(=O)N2CCCC[C@H]2C(=O)O)C2CCCCC2)cc(OC)c1OC [Compound C06, (S)-1-((S)-2-cyclohexyl-2-(3,4,5-trimethoxyphenyl)acetyl)piperidine-2-carboxylic acid] |
| +++ (>500 +++) | 1 to 10 | – | – | COc1cc([C@@H](C(=O)N2CCCC[C@H]2C(=O)O[C@H](C)COCc2ccccc2)C2CCCCC2)cc(OC)c1OC [Compound C24] |
| +++ (>500 +++) | 1 to 10 | – | – | COCCCCOC(=O)[C@@H]1CCCCN1C(=O)[C@H](c1cc(OC)c(OC)c(OC)c1)C1CCCCC1 [Compound C23, (S)-4-methoxybutyl-1-((S)-2-cyclohexyl-2-(3,4,5-trimethoxyphenyl)acetyl) piperidine-2-carboxylate] |
| +++ (>500 +++) | 1 to 10 | – | – | CCCOC(=O)[C@@H]1CCCCN1C(=O)[C@H](c1cc(OC)c(OC)c(OC)c1)C1CCCCC1 [Compound C03, (S)-propyl 1-((S)-2-cyclohexyl-2-(3,4,5-trimethoxyphenyl)acetyl)piperidine-2-carboxylate] |
| +++ (>500 +++) | 1 to 10 | – | – | COc1cc([C@@H](C(=O)N2CCCC[C@H]2C(=O)OC2(C)CCCC2)C2CCCCC2)cc(OC)c1OC [Compound C11, (S)-1-methylcyclopentyl-1-((S)-2-cyclohexyl-2-(3,4,5-trimethoxyphenyl)acetyl) piperidine-2-carboxylate] |

The remaining lines, values behind:

| SMILES | Ki(FKBP51)/Ki(FKBP52) ([1]; compounds B01-C25) | Ki ([2]; compounds B01-C25) [µM] | Ki(FKBP51)/Ki(FKBP52) [1, 3] | Ki [2, 4] [µM] |
| --- | --- | --- | --- | --- |
| COc1cc([C@@H](C(=O)N2CCCC[C@H]2C(=O)N[C@H](C)C(N)=O)C2CCCCC2)cc(OC)c1OC [Compound B02, (S)-N-((R)-1-amino-1-oxopropan-2-yl)-1-((S)-2-cyclohexyl-2-(3,4,5-trimethoxyphenyl)acetyl)piperidine-2-carboxamide] | ++ (>50 ++) | 1 to 10 | – | – |
| C=CC[C@H](C(=O)N1CCCC[C@H]1C(=O)O[C@H](CCc1ccc(OC)c(OC)c1)c1cccc(OCC(=O)O)c1)c1cc(OC)c(OC)c(OC)c1 [Reference A01, 2-(3-((R)-3-(3,4-Dimethoxyphenyl)-1-(((S)-1-((S)-2-(3,4,5-trimethoxyphenyl)pent-4-enoyl)piperidine-2-carbonyl)oxy)propyl)phenoxy)acetic acid] | – | – | not selective (<5 not selective) | 10 to 50 |
| COc1cc([C@@H](C(=O)N2CCCC[C@H]2C(=O)N[C@H](C(N)=O)C2CCCCC2)C2CCCCC2)cc(OC)c1OC [Compound B18, (S)-N-((S)-2-amino-1-cyclohexyl-2-oxoethyl)-1-((S)-2-cyclohexyl-2-(3,4,5-trimethoxyphenyl)acetyl)piperidine-2-carboxamide] | ++ (>50 ++) | 1 to 10 | – | – |
| CC[C@@H](C)[C@@H](NC(=O)[C@@H]1CCCCN1C(=O)[C@H](c1cc(OC)c(OC)c(OC)c1)C1CCCCC1)C(N)=O [Compound B15, (S)-N-((2R,3R)-1-amino-3-methyl-1-oxopentan-2-yl)-1-((S)-2-cyclohexyl-2-(3,4,5-trimethoxyphenyl)acetyl)piperidine-2-carboxamide] | ++ (>50 ++) | 1 to 10 | – | – |
| COc1ccc(CCC(OC(=O)[C@@H]2CCCCN2C(=O)C(NC(=O)C2CCCCC2)C2CCCCC2)c2cccc(OCC(=O)O)c2)cc1OC (stereo partly drawn) [Compound A26, 2-(3-(1-(((2S)-1-(2-(cyclohexanecarboxamido)-2-cyclohexylacetyl)piperidine-2-carbonyl)oxy)-3-(3,4-dimethoxyphenyl)propyl)phenoxy)acetic acid] | – | – | + (>5 +) | 10 to 50 |
| COc1cc([C@@H](C(=O)N2CCCC[C@H]2C(=O)N[C@H](CO)C(N)=O)C2CCCCC2)cc(OC)c1OC [Compound B21, (S)-N-((R)-1-amino-3-hydroxy-1-oxopropan-2-yl)-1-((S)-2-cyclohexyl-2-(3,4,5-trimethoxyphenyl)acetyl)piperidine-2-carboxamide] | ++ (>50 ++) | 1 to 10 | – | – |
| COc1cc([C@@H](C(=O)N2CCCC[C@H]2C(=O)NCCC(N)=O)C2CCCCC2)cc(OC)c1OC [Compound B29, (S)-N-(3-amino-3-oxopropyl)-1-((S)-2-cyclohexyl-2-(3,4,5-trimethoxyphenyl)acetyl)piperidine-2-carboxamide] | ++ (>50 ++) | 1 to 10 | – | – |
| COc1cc([C@@H](C(=O)N2CCCC[C@H]2C(=O)N[C@H](Cc2c[nH]cn2)C(N)=O)C2CCCCC2)cc(OC)c1OC [Compound B34, (S)-N-((R)-1-amino-3-(1H-imidazol-4-yl)-1-oxopropan-2-yl)-1-((S)-2-cyclohexyl-2-(3,4,5-trimethoxyphenyl)acetyl)piperidine-2-carboxamide] | ++ (>50 ++) | 10 to 50 | – | – |
| COc1cc([C@@H](C(=O)N2CCCC[C@H]2C(=O)N[C@@H](C(N)=O)C(C)C)C2CCCCC2)cc(OC)c1OC [Compound B04, (S)-N-((R)-1-amino-3-methyl-1-oxobutan-2-yl)-1-((S)-2-cyclohexyl-2-(3,4,5-trimethoxyphenyl)acetyl)piperidine-2-carboxamide] | + (>5 +) | 1 to 10 | – | – |
| COc1cc([C@@H](C(=O)N2CCCC[C@H]2C(=O)N[C@@H](CCC2CCCCC2)C(N)=O)C2CCCCC2)cc(OC)c1OC [Compound B09, (S)-N-((S)-1-amino-4-cyclohexyl-1-oxobutan-2-yl)-1-((S)-2-cyclohexyl-2-(3,4,5-trimethoxyphenyl)acetyl)piperidine-2-carboxamide] | ++ (>50 ++) | 10 to 50 | – | – |
| COc1ccc(CC[C@@H](OC(=O)[C@@H]2CCCCN2C(=O)[C@H](c2cc(OC)c(OC)c(OC)c2)[C@@H]2C=CCCC2)c2cccc(OCC(=O)O)c2)cc1OC [Compound A11, 2-(3-((R)-1-(((S)-1-((S)-2-((S)-Cyclohex-2-en-1-yl)-2-(3,4,5-trimethoxyphenyl)acetyl)piperidine-2-carbonyl)oxy)-3-(3,4-dimethoxyphenyl)propyl)phenoxy) acetic acid] | – | – | +++ (>500 +++) | < 0.1 |
| COc1cc([C@@H](C(=O)N2CCCC[C@H]2C(=O)N[C@H](Cc2ccccc2)C(N)=O)C2CCCCC2)cc(OC)c1OC [Compound B06, (S)-N-((R)-1-amino-1-oxo-3-phenylpropan-2-yl)-1-((S)-2-cyclohexyl-2-(3,4,5-trimethoxyphenyl)acetyl)piperidine-2-carboxamide] | ++ (>50 ++) | 1 to 10 | – | – |
| C=CC[C@H](C(=O)N1CCCC[C@H]1C(=O)N[C@H](CCc1ccc(OC)c(OC)c1)c1cccc(OCCN2CCOCC2)c1)c1cc(OC)c(OC)c(OC)c1 [Compound A05, (S)-N-((R)-3-(3,4-dimethoxyphenyl)-1-(3-(2-morpholinoethoxy)phenyl)propyl)-1-((S)-2-(3,4,5-trimethoxyphenyl)pent-4-enoyl)piperidine-2-carboxamide] | – | – | + (>5 +) | 1 to 10 |
